# Data as given in patent publication EP4741392A1, “1H-PYRAZOLO[4,3-C]PYRIDINE COMPOUND, AND COMPOSITION THEREOF AND USE THEREOF” (Shenzhen TargetRx Co., Ltd., priority 2023, dated 2025).
# System: Ramos cells with BTK WT
# Assay: Phosphor-BTK(Y223) assay, suspended cells
# Assay type: cell-based
# Conditions: Homo sapiens, Ramos, phosphorylated BTK Y223, Ramos cells with BTK WT
# Description: The purpose of this assay was to simply, quickly and directly detect the level of endogenous BTK phosphorylation in cells.
# The steps for handling suspended cells were as follows: • 1) Ramos cells with BTK WT (2.5 k/well), BTK C481S (2.5 k/well), or BTK T474I (2.5 k/well) were plated in a 96-well plate, respectively. A compound of different concentration gradients was added using Tecan D300e, and the plate was incubated at 37 °C and 5% CO2 for 2 hours. • 2) 8.33 µL of 20 mM Na3VO4 was added to bring the final concentration to 5 mM, and the plate was incubated at 37 °C and 5% CO2 for 3 h. • 3) During the incubation, the following reagents were prepared: • 4x added lysis buffer: 24 vol 4x lysis buffer + 1 vol 25x blocking reagent. • p-BTK (Y223) cryptate-antibody and p-BTK (Y223) d2-antibody working solutions: 1 volume of each cryopreserved antibody (stored at - 20 °C) was added to 38 times the volume of assay buffer (stored at 4 °C), and mixed well. • 4) After the incubation was completed, 11.1 µL of 4x added lysis buffer was directly added. The plate was shaken at 800 rpm at room temperature for 30 min. • 5) The lysate was mixed well and 16 µL of it was transferred to a 384-well plate. 1 × added lysis buffer was used as a blank control. • 6) 4 µL of pre-mixed working solutions of the two antibodies (cryptate Ab:d2 Ab = 1:1) was added, and the plate was sealed. • 7) The plate was incubated at room temperature overnight. • 8) The plate was read at 665nm and 620nm using Biotek cytation3.0 microplate reader, and the ratio of 665/620nm of each well was calculated. Data analysis: IC50 was calculated using GraphPad Prism 7.0 software.
# The IC50 (half-maximal phosphorylation inhibitory concentration) of the phosphorylated BTK Y223 of the compound was obtained using the following nonlinear fitting formula: Y = Bottom + (Top−Bottom)/(1+10^(∧)((LogIC50−X)*HillSlope)) [formula] • X: Log value of the compound concentration • Y: Inhibition rate (% inhibition) • Top: Maximum response • Bottom: Baseline response • HillSlope: Slope of the curve
# The formula for calculating cell phosphorylation inhibition rate (inhibition rate %) was: Inhibition rate% = 1−(eachconcentrationwell-blankwell)/(positivecontrolwell−blankwell) [formula]
row,IC50,Structure (SMILES)
1,5 to 10 nM,"COc1ccc(F)cc1C(=O)NCc1ccc(-c2nc(C(C)C(F)(F)F)cc3[nH]nc(N)c23)cc1 (single isomer, unassigned) [Example 2, N-(4-(3-amino-6-(1,1,1-trifluoropropan-2-yl)-1H-pyrazolo[4,3-c]pyridin-4-yl)benzyl)-5-fluoro-2-methoxybenzamide]"
2,≤ 5 nM,"COc1ccc(F)cc1C(=O)NCc1ccc(-c2nc(C(C)C(F)(F)F)c(-c3ccn(C)n3)c3[nH]nc(N)c23)cc1 (single isomer, unassigned) [Example 6-1, N-(4-(3-amino-7-(1-methyl-1H-pyrazol-3-yl)-6-(1,1,1-trifluoropropan-2-yl)-1H-pyrazolo[4,3-c]pyridin-4-yl)benzyl)-5-fluoro-2-methoxybenzamide]"
3,≤ 5 nM,"COc1ccc(F)cc1C(=O)NCc1ccc(-c2nc(C(C)C(F)(F)F)c(-c3ncccn3)c3[nH]nc(N)c23)cc1 (single isomer, unassigned) [Example 7-1, N-(4-(3-amino-7-(pyrimidin-2-yl)-6-(1,1,1-trifluoropropan-2-yl)-1H-pyrazolo[4,3-c]pyridin-4-yl)benzyl)-5-fluoro-2-methoxybenzamide]"
4,≤ 5 nM,"COc1ccc(F)cc1C(=O)NCc1ccc(-c2nc(C(C)C(F)(F)F)c(-c3ccn(C)n3)c3[nH]nc(N)c23)cc1 (stereo not shown) [Example 6, N-(4-(3-amino-7-(1-methyl-1H-pyrazol-3-yl)-6-(1,1,1-trifluoropropan-2-yl)-1H-pyrazolo[4,3-c]pyridin-4-yl)benzyl)-5-fluoro-2-methoxybenzamide]"
5,5 to 10 nM,"COc1ccc(F)cc1C(=O)NCc1ccc(-c2nc(C(C)C(F)(F)F)c(-c3ncccn3)c3[nH]nc(N)c23)cc1 (stereo not shown) [Example 7, N-(4-(3-amino-7-(pyrimidin-2-yl)-6-(1,1,1-trifluoropropan-2-yl)-1H-pyrazolo[4,3-c]pyridin-4-yl)benzyl)-5-fluoro-2-methoxybenzamide]"
6,5 to 10 nM,"COc1ccc(F)cc1C(=O)NCc1ccc(-c2nc(C(C)C(F)(F)F)c(-c3cc(C)[nH]n3)c3[nH]nc(N)c23)cc1 (stereo not shown) [Example 9, N-(4-(3-amino-7-(5-methyl-1H-pyrazol-3-yl)-6-(1,1,1-trifluoropropan-2-yl)-1H-pyrazolo[4,3-c]pyridin-4-yl)benzyl)-5-fluoro-2-methoxybenzamide]"
7,5 to 10 nM,"COc1ccc(F)cc1C(=O)NCc1ccc(-c2ncc(-c3ccccn3)c3[nH]nc(N)c23)cc1 [Example 15, N-(4-(3-amino-7-(pyridin-2-yl)-1H-pyrazolo[4,3-c]pyridin-4-yl)benzyl)-5-fluoro-2-methoxybenzamide]"
8,5 to 10 nM,"COc1ccc(F)cc1C(=O)NCc1ccc(-c2ncc(-c3ncccn3)c3[nH]nc(N)c23)cc1 [Example 17, N-(4-(3-amino-7-(pyrimidin-2-yl)-1H-pyrazolo[4,3-c]pyridin-4-yl)benzyl)-5-fluoro-2-methoxybenzamide]"
9,10 to 50 nM,"COc1ccc(F)cc1C(=O)NCc1ccc(-c2ncc(-c3cnccn3)c3[nH]nc(N)c23)cc1 [Example 18, N-(4-(3-amino-7-(pyrazin-2-yl)-1H-pyrazolo[4,3-c]pyridin-4-yl)benzyl)-5-fluoro-2-methoxybenzamide]"
10,5 to 10 nM,COc1ccc(F)cc1C(=O)NCc1ccc(-c2ncc(-c3ccncn3)c3[nH]nc(N)c23)cc1 [Example 19]
11,≤ 5 nM,"COc1ccc(F)cc1C(=O)NCc1ccc(-c2ncc(-c3ccc(F)cn3)c3[nH]nc(N)c23)cc1 [Example 21, N-(4-(3-amino-7-(5-fluoropyridin-2-yl)-1H-pyrazolo[4,3-c]pyridin-4-yl)benzyl)-5-fluoro-2-methoxybenzamide]"
12,10 to 50 nM,"COc1ccc(F)cc1C(=O)NCc1ccc(-c2ncc(-c3cnn(C)c3)c3[nH]nc(N)c23)cc1 [Example 22, N-(4-(3-amino-7-(1-methyl-1H-pyrazol-4-yl)-1H-pyrazolo[4,3-c]pyridin-4-yl)benzyl)-5-fluoro-2-oxybenzamide]"
13,≤ 5 nM,"COc1ccc(F)cc1C(=O)NCc1ccc(-c2ncc(-c3ccn(C)n3)c3[nH]nc(N)c23)cc1 [Example 23, N-(4-(3-amino-7-(1-methyl-1H-pyrazol-3-yl)-1H-pyrazolo[4,3-c]pyridin-4-yl)benzyl)-5-fluoro-2-methoxybenzamide]"
14,≤ 5 nM,"COc1ccc(F)cc1C(=O)NCc1ccc(-c2ncc(-c3ccc(C(F)(F)F)cn3)c3[nH]nc(N)c23)cc1 [Example 24, N-(4-(3-amino-7-(5-(trifluoromethyl)pyridin-2-yl)-1H-pyrazolo[4,3-c]pyridin-4-yl)benzyl)-5-fluoro-2-methoxybenzamide]"
15,5 to 10 nM,"COc1ccc(F)cc1C(=O)NCc1ccc(-c2ncc(-c3ccn(CC(=O)N(C)C)n3)c3[nH]nc(N)c23)cc1 [Example 25, N-(4-(3-amino-7-(1-(2-(dimethylamino)-2-oxoethyl)-1H-pyrazol-3-yl)-1H-pyrazolo[4,3-c]pyridin-4-yl)benzyl)-5-fluoro-2-methoxybenzamide]"
16,≤ 5 nM,"CNC(=O)Cn1ccc(-c2cnc(-c3ccc(CNC(=O)c4cc(F)ccc4OC)cc3)c3c(N)n[nH]c23)n1 [Example 26, N-(4-(3-amino-7-(1-(2-(methylamino)-2-oxoethyl)-1H-pyrazol-3-yl)-1H-pyrazolo[4,3-c]pyridin-4-yl)benzyl)-5-fluoro-2-methoxybenzamide]"
17,10 to 50 nM,"COc1ccc(F)cc1C(=O)NCc1ccc(-c2ncc(-c3ccn(CC(F)(F)F)n3)c3[nH]nc(N)c23)cc1 [Example 28, N-(4-(3-amino-7-(1-(2,2,2-trifluoroethyl)-1H-pyrazol-3-yl)-1H-pyrazolo[4,3-c]pyridin-4-yl)benzyl)-5-fluoro-2-methoxybenzamide]"
18,10 to 50 nM,"COc1ccc(F)cc1C(=O)NCc1ccc(-c2ncc(-c3cn(C)cn3)c3[nH]nc(N)c23)cc1 [Example 30, N-(4-(3-amino-7-(1-methyl-1H-imidazol-4-yl)-1H-pyrazolo[4,3-c]pyridin-4-yl)benzyl)-5-fluoro-2-methoxybenzamide]"
19,10 to 50 nM,"COc1ccc(F)cc1C(=O)NCc1ccc(-c2ncc(-c3cc[nH]n3)c3[nH]nc(N)c23)cc1 [Example 31, N-(4-(3-amino-7-(1H-pyrazol-3-yl)-1H-pyrazolo[4,3-c]pyridin-4-yl)benzyl)-5-fluoro-2-methoxybenzamide]"

# Same assay, conditions: phosphorylated BTK Y223, Ramos cells with BTK WT
row,IC50,Structure (SMILES)
1,5 to 10 nM,"COc1ccc(F)cc1C(=O)NCc1ccc(-c2nc(C(C)C(F)(F)F)cc3[nH]nc(N)c23)cc1 (single isomer, unassigned) [Example 3, N-(4-(3-amino-6-(1,1,1-trifluoropropan-2-yl)-1H-pyrazolo[4,3-c]pyridin-4-yl)benzyl)-5-fluoro-2-methoxybenzamide]"
2,≤ 5 nM,"COc1ccc(F)cc1C(=O)NCc1ccc(-c2nc(C(C)C(F)(F)F)c(-c3ccn(C)n3)c3[nH]nc(N)c23)cc1 (single isomer, unassigned) [Example 6-2, N-(4-(3-amino-7-(1-methyl-1H-pyrazol-3-yl)-6-(1,1,1-trifluoropropan-2-yl)-1H-pyrazolo[4,3-c]pyridin-4-yl)benzyl)-5-fluoro-2-methoxybenzamide]"
3,5 to 10 nM,"COc1ccc(F)cc1C(=O)NCc1ccc(-c2nc(C(C)C(F)(F)F)c(-c3ncccn3)c3[nH]nc(N)c23)cc1 (single isomer, unassigned) [Example 7-2, N-(4-(3-amino-7-(pyrimidin-2-yl)-6-(1,1,1-trifluoropropan-2-yl)-1H-pyrazolo[4,3-c]pyridin-4-yl)benzyl)-5-fluoro-2-methoxybenzamide]"
